Results on seven molecules are retold here after patent US5500443A, “New benzodioxane compounds” (Adir et Compagnie, priority 1994, dated 1996).

Counter-ions that a name gives are not always drawn. Like-named read-outs stand apart in the source and are kept apart here.

One data set deals with D2 (Rattus norvegicus, UniProt P61169). The experiment in a line: biochemical. To be noted: binding; read-out: Receptor Profile (pKi) D2 (converted).
For a further data set, the target named is T1, 5-HT1A (Rattus norvegicus, UniProt P19327).
T1 sequence (P19327 1-422): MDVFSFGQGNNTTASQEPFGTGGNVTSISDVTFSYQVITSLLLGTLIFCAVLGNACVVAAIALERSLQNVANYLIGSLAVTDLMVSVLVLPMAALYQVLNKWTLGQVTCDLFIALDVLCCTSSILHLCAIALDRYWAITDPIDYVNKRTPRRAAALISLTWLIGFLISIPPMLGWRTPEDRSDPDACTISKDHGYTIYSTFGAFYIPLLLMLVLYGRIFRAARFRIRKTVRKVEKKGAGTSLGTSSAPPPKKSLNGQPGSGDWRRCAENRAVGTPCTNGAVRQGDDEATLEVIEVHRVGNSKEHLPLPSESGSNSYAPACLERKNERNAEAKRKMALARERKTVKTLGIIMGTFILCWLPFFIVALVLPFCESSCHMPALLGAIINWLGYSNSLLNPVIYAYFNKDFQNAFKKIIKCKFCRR
The data set is described as follows: biochemical. Conditions: binding; read-out: Receptor Profile (pKi) 5-HT1A (converted).

The target in another data set is T2, 5-HT2A (Rattus norvegicus, UniProt P14842).
T2 construct: from tissue
T2 sequence (P14842 whole entry): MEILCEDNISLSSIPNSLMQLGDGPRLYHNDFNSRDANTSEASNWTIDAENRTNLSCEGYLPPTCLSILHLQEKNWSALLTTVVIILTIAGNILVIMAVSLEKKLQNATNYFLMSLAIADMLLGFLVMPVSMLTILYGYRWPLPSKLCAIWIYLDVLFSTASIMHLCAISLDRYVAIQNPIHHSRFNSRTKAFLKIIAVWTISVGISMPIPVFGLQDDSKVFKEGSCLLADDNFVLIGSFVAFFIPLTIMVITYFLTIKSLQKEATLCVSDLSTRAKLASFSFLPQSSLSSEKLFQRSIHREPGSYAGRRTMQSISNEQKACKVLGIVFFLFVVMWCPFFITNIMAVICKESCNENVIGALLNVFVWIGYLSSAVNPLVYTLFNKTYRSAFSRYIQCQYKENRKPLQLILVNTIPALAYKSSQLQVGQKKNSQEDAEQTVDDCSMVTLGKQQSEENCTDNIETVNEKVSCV
The experiment in a line: Receptor profile, binding studies (5-HT2A). Conditions: Receptor Profile (pKi) 5-HT2A.

The next data set concerns the target T3, 5-HT2C (Sus scrofa, UniProt K7GSR7).
T3 construct: from tissue
T3 sequence (K7GSR7 1-457): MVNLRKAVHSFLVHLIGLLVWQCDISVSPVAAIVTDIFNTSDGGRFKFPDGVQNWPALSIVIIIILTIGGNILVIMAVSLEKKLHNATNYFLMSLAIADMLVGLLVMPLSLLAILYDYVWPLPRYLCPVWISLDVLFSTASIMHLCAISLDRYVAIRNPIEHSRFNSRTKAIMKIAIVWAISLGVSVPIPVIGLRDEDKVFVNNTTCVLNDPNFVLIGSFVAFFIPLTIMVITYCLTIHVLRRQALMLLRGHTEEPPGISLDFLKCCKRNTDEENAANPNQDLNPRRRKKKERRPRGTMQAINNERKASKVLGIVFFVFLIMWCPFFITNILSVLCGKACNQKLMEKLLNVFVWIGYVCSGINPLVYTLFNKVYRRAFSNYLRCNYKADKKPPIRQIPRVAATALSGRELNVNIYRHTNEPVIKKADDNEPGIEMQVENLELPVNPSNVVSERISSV
The data set is described as follows: Receptor profile, binding studies (5-HT2C). Conditions: Receptor Profile (pKi) 5-HT2C.

The subject of data set [1] is mesolimbic dopaminergic pathways. The data set is described as follows: Verticalization test using apomorphine in mice. It is filed as in vivo, male CF (Charles River) mice. Conditions: for ED50: Mus musculus, sc, read-out: Verticalization (Apomorphine) DI50. The method, then:
(§1) An activity in these tests appears to reflect blocking of the mesolimbic dopaminergic pathways, which are believed to be hyperactive in schizophrenics, as described by P. C.
The experiment was performed on male CF (Charles River) mice of average weight 25 g. thirty minutes before the start of the test, each mouse was placed in a cylindrical cage (O12 cm 14 cm), with vertical metal bars and a smooth plastic lid, after having received a subcutaneous injection of solvent or of product. […] At T10 (10 minutes) and at T20 (20 minutes), a score was attributed to each animal after observation for approximately one minute:
score 0 (4 feet on the floor);
score 1 (animal raised on hind legs, forefeet on the vertical bars);
score 2 (animal gripping on to the bars with all 4 feet).
The total score of the 2 measurements then represents the verticalization value of the animal, which is used for the statistical analysis.

The test system is the same in data set [2]. The experiment in a line: Test of the motor activity induced by amphetamine. The class given is in vivo, male Wistar rats. To be noted: for ED50: Rattus norvegicus, sc, read-out: Locomotion (Amphetamine) DI50. As to the method:
motor activity inhibition induced by amphetamine (which increases the release of catecholamines) according to the procedure described by A. A. Mengens, cited above.
as §1
Male Wistar rats (200-220 g) were placed in transparent polycarbonate individual cages the night before the test. The locomotor activity was recorded using photoelectric cells (Systeme Lablinc, Coulbourn) connected via an interface to a microcomputer. There are two transverse banks of photoelectric cells per cage. The test takes place under artificial light, starting from 1.00 p.m., during daylight hours. The product or solvent was administered to the animal subcutaneously, 30 minutes before the start of the test.

The nature of data set [3]: Induction of catalepsy in rats. To be noted: rat, in vivo, sc. Further details: species or system male Wistar rats. The source says:
In order to determine the potential of the compounds of the invention to generate a syndrome of extrapyramidal type, the capacity to induce a catalepsy in rats was examined. This phenomenon is due to an antagonism of the nigrostriatal dopaminergic transmission.
Male Wistar rats (220-240 g) were placed in individual cages and food was witheld the night before the test. The test used to evaluate the cataleptogenic properties of a product consists in placing each of the animal's hind feet on the forefoot located on the same side and in measuring the time in seconds for which the animal kept this "crossed feet" position, up to 30 seconds, as described by P. C. […] Each animal underwent three tests, at intervals of one minute; the average value of the three tests then represents the catalepsy time of the animal, which is used for the statistical analysis. The product to be tested was administered to the animal subcutaneously, 30 minutes before the test.
The effective cataleptogenic dose ED5.sbsb.0 is that which induces catalepsy for an average duration of 15 seconds, that is to say for 50% of the maximum duration of the test (30 seconds).

Another data set has as its system schizophrenia. Conditions: cited from earlier work.
Another data set has as its target T4, D1 (Rattus norvegicus, UniProt P18901).
T4 construct: from tissue
The experiment in a line: Receptor profile, binding studies (D1). Conditions: read-out: Receptor Profile (pKi) D1 (converted).

In a further data set the target is α1. The experiment in a line: Receptor profile, binding studies (α1).
Data set [4] concerns adrenergic (α1) receptors. To be noted: cited from earlier work.
The subject of a further data set is 5-HT1A receptors. To be noted: unlike haloperidol; cited from earlier work.
Where [5] appears, read: mice, s.c. 30 min before, apomorphine 0.75 mg/kg s.c., Inhibitory Dose50, 95% confidence limits.
The mark [6] stands for this setting: rats, s.c. 30 min before, D-amphetamine 2.5 mg/kg i.p., 1 hour, Inhibitory Dose50, 95% confidence limits.

Chain of D2 (P61169 whole entry): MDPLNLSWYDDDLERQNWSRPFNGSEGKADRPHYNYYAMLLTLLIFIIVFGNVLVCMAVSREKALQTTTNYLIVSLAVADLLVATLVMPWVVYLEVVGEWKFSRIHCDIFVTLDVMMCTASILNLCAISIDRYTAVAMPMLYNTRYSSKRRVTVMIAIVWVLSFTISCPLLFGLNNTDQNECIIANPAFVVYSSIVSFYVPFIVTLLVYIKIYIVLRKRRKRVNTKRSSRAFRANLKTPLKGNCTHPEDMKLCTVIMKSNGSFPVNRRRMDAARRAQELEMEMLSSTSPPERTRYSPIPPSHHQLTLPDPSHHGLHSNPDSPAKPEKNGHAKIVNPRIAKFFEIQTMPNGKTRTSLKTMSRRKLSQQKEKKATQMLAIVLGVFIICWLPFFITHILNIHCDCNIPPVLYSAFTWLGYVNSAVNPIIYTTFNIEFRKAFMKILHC
T4 sequence (P18901 whole entry): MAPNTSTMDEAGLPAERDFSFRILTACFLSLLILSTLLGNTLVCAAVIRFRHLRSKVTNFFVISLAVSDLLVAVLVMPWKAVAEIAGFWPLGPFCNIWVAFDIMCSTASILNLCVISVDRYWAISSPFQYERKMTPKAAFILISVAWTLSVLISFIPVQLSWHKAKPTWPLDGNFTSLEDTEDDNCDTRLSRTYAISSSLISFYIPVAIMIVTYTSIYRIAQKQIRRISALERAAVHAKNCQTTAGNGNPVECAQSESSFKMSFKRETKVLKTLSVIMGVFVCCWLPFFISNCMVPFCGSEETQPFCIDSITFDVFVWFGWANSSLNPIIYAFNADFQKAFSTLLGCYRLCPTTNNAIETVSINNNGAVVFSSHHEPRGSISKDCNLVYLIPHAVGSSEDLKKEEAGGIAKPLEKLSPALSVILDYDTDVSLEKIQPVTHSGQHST

On to `Cl.Fc1ccc2c(CC3CCN(CCOc4cccc5c4OCCO5)C3)noc2c1` (stereo not shown) [Example 8, 5-{2-[3-[(6-Fluoro-1,2-benzisoxazol-3-yl)methyl]pyrrolidin-1-yl]ethoxy}-1,4-benzodioxane hydrochloride], for which the Ki on D2 was 257 nM; at 5-HT1A it was 3.89 nM; on 5-HT2A, 13.2 nM; at 5-HT2C it was 95.5 nM. Also, in data set [1] (setting [5]), the ED50 was around 0.63 mg/kg.

`Cl.Fc1ccc2c(CC3CCN(CCOc4cccc5c4OCCO5)C3)n[nH]c2c1` (stereo not shown) [Example 7, 5-{2-[3-[(6-Fluoro-1H-indazol-3-yl)methyl]pyrrolidin-1-yl]ethoxy}-1,4-benzodioxane hydrochloride]: the Ki at D2 is 53.7 nM; at 5-HT1A, 1.7 nM; at 5-HT2A, 21.9 nM; on 5-HT2C, 93.3 nM. In data set [1] (setting [5]), the ED50 amounted to 0.41 mg/kg.

Take `O=C(CCCN1CCC(O)(c2ccc(Cl)cc2)CC1)c1ccc(F)cc1` [Haloperidol, haloperidol, reference compound]: the ED50 in [1] was determined as 0.013 mg/kg. In addition, the ED50 in data set [2] worked out at 0.043 mg/kg. The ED50 at 0.5 h in data set [3] is 0.156 mg/kg. In addition, in the data set on schizophrenia (schizophrenia), the “effectiveness for the productive symptoms (such as fabulation and hallucinations)” value is reported as “quite good care for the productive symptoms”; the “effectiveness with regard to deficiency symptoms (such as social withdrawal)” value was “very poor”; the extrapyramidal syndrome entry is given as “induce an extrapyramidal syndrome of Parkinson type”.

As to `O=C(CC1CCN(CCOc2cccc3c2OCCO3)C1)c1ccc(F)cc1` (single isomer, unassigned) [Example 5, 5-{2-[3-(4-Fluorobenzoylmethyl)pyrrolidin-1-yl]ethoxy}-1,4-benzodioxane hydrochloride, (+) isomer], the Ki on D1 is 275 nM; at D2, 46.8 nM; at 5-HT1A, 4.79 nM; at 5-HT2A it was 3.31 nM; on 5-HT2C it was 9.33 nM. On α1 (listed as ex. 5), the “Receptor Profile (pKi) α1” value is listed as 8.19. Moreover, the ED50 in data set [1] (setting [5]) was found to be 0.26 mg/kg; in data set [2] (setting [6]), 2.8 mg/kg. This molecule came in with an ED50 at 0.5 h in [3] above 40 mg/kg.

On to `O=C(CC1CCN(CCOc2cccc3c2OCCO3)C1)c1ccc(F)cc1` (stereo not shown) [Example 2, 5-{2-[3-(4-Fluorobenzoylmethyl)pyrrolidin-1-yl}-1,4-benzodioxane hydrochloride], for which the Ki is 251 nM on D1; 43.7 nM on D2; 4.9 nM at 5-HT1A; 3.98 nM on 5-HT2A; 7.94 nM at 5-HT2C. Moreover, at α1, the “Receptor Profile (pKi) α1” value was 8.61. For the same molecule, the values for the ED50 in data set [1] (setting [5]) and in data set [2] (setting [6]) were 0.28 mg/kg and 2.17 mg/kg, respectively. This molecule returned an ED50 at 0.5 h in data set [3] above 40 mg/kg.

In the case of `CN1CCN(C2=Nc3cc(Cl)ccc3Nc3ccccc32)CC1` [Clozapine, clozapine], the ED50 came to 2.22 mg/kg in [1] (setting [5]) and 12.8 mg/kg in [2] (setting [6]). Further, the ED50 at 0.5 h in [3] (rats, s.c. 30 min before, dose inducing catalepsy for an average of 15 seconds (50% of maximum), read-out: Induction of the catalepsy DE50) was above 40 mg/kg. Moreover, the “affinity for the adrenergic (α1) receptors” value in [4] is on record as “relatively high affinity”. Further, the “toxicity in the general treatment of schizophrenic states” value with schizophrenia (human, in vivo) is on record as “on account of its toxicity, clozapine cannot be envisaged in the general treatment of schizophrenic states”. Also, the extrapyramidal syndrome entry in the data set with schizophrenia (schizophrenia) is given as “appears not to bring about an extrapyramidal syndrom”. In addition, the “affinity for the 5-HT1A receptors” value in the data set on 5-HT1A receptors is reported as “a certain affinity for the 5-HT1A receptors”.

With `O=C(CC1CCN(CCOc2cccc3c2OCCO3)C1)c1ccc(F)cc1` (single isomer, unassigned) [Example 6, 5-{2-[3-(4-Fluorobenzoylmethyl)pyrrolidin-1-yl]ethoxy}-1,4-benzodioxane hydrochloride, (-) isomer], the Ki at D1 is 204 nM; on D2 it was 53.7 nM; on 5-HT1A, 3.63 nM; on 5-HT2A, 2.4 nM; at 5-HT2C it was 6.61 nM. The “Receptor Profile (pKi) α1” value on α1 (listed as ex. 6) is on record as 8.93. Also, the “Verticalization (Apomorphine) DI50” value in data set [1] (mice, s.c. 30 min before, apomorphine 0.75 mg/kg s.c., Inhibitory Dose50, 95% confidence limits, listed as Ex. 6) came out at 0.25 mg/kg. Moreover, in data set [2] (rats, s.c. 30 min before, D-amphetamine 2.5 mg/kg i.p., 1 hour, Inhibitory Dose50, 95% confidence limits, listed as Ex. 6), the “Locomotion (Amphetamine) DI50” value is reported as 1.94 mg/kg.
